Experimental data taken from PubChem BioAssay AID330 (DTP/NCI, 2004).
“And” between values parts separate entries of the source, which are not always exact repeats. Equal values may be shown once. Inconclusive results and toxic doses are left out.

Test system: P388 leukemia ip, CD2F1 mice, survival T/C
Test: NCI In Vivo Anticancer Drug Screen. Data for tumor model P388 Leukemia (intraperitoneal) in CD2F1 (CDF1) mice
Settings: endpoint: median survival time, higher = longer survival
Method in brief: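 Mice carrying the transplanted tumor received test compound or vehicle. Survival was recorded in each group, and the value is the treated-group measurement divided by that of the vehicle-treated control group.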

[1] = dose: 12.5 mg/kg/injection, schedule: Q01DX009 (ip), vehicle: saline with Tween-80
[2] = dose: 50.0 mg/kg/injection, schedule: Q01DX009 (ip), vehicle: saline with Tween-80
[3] = dose: 100.0 mg/kg/injection, schedule: Q01DX009 (ip), vehicle: saline with Tween-80
[4] = dose: 50.0 mg/kg/injection, schedule: Q01DX005 (ip), vehicle: saline with Tween-80
[5] = dose: 100.0 mg/kg/injection, schedule: Q01DX005 (ip), vehicle: saline with Tween-80
[6] = dose: 200.0 mg/kg/injection, schedule: Q01DX005 (ip), vehicle: saline with Tween-80
[7] = dose: 200.0 mg/kg/injection, schedule: Q01DX009 (ip), vehicle: saline with Tween-80
[8] = dose: 100.0 mg/kg/injection, schedule: Q04DX003 (ip), vehicle: saline with Tween-80
[9] = dose: 50.0 mg/kg/injection, schedule: Q01DX009 (ip), vehicle: Klucel (hydroxypropylcellulose) (HPC)
[10] = dose: 100.0 mg/kg/injection, schedule: Q01DX009 (ip), vehicle: Klucel (hydroxypropylcellulose) (HPC)
[11] = dose: 200.0 mg/kg/injection, schedule: Q01DX009 (ip), vehicle: Klucel (hydroxypropylcellulose) (HPC)
[12] = dose: 50.0 mg/kg/injection, schedule: Q01DX005 (ip), vehicle: Klucel (hydroxypropylcellulose) (HPC)
[13] = dose: 100.0 mg/kg/injection, schedule: Q01DX005 (ip), vehicle: Klucel (hydroxypropylcellulose) (HPC)
[14] = dose: 200.0 mg/kg/injection, schedule: Q01DX005 (ip), vehicle: Klucel (hydroxypropylcellulose) (HPC)
[15] = dose: 100.0 mg/kg/injection, schedule: Q01DX001 (ip), vehicle: saline with Tween-80
[16] = dose: 200.0 mg/kg/injection, schedule: Q01DX001 (ip), vehicle: saline with Tween-80
[17] = dose: 400.0 mg/kg/injection, schedule: Q01DX001 (ip), vehicle: saline with Tween-80
[18] = dose: 50.0 mg/kg/injection, schedule: Q01DX009 (ip), vehicle: suspension in saline
[19] = dose: 100.0 mg/kg/injection, schedule: Q01DX009 (ip), vehicle: suspension in saline
[20] = dose: 25.0 mg/kg/injection, schedule: Q01DX009 (ip), vehicle: saline with Tween-80
[21] = dose: 60.0 mg/kg/injection, schedule: Q01DX005 (ip), vehicle: saline with Tween-80
[22] = dose: 120.0 mg/kg/injection, schedule: Q01DX005 (ip), vehicle: saline with Tween-80
[23] = dose: 100.0 mg/kg/injection, schedule: Q04DX003 (ip), vehicle: Klucel (hydroxypropylcellulose) (HPC)
[24] = dose: 200.0 mg/kg/injection, schedule: Q04DX003 (ip), vehicle: Klucel (hydroxypropylcellulose) (HPC)
[25] = dose: 100.0 mg/kg/injection, schedule: Q04DX002 (ip), vehicle: saline

O=C1Nc2ccc([N+](=O)[O-])cc2/C1=C/C(=O)c1ccccc1 was tested, and the T/C (dose: 3.13 mg/kg/injection, schedule: Q01DX009 (ip), vehicle: saline with Tween-80) was 101 % of control, the T/C (dose: 6.25 mg/kg/injection, schedule: Q01DX009 (ip), vehicle: saline with Tween-80) was 98 % of control and the T/C [1] was 96 % of control. The T/C [2] was 100 % of control and the T/C [3] was 108 % of control.
For NC(=S)N/N=C/c1cc(=O)c2cc(Cl)ccc2o1, the T/C [4] was 94 % of control, the T/C [5] was 93 % of control and the T/C [6] was 92 % of control.
For Cc1cc(O)c(C(c2ccccn2)c2c(O)cc(C)[nH]c2=O)c(=O)[nH]1, the T/C [2] was 102 % of control, the T/C [3] was 102 % of control and the T/C [7] was 105 % of control.
For COC(=O)C1=C(C(=O)OC)C2C=CC1C(=O)N2/C=C/c1ccccc1 (centres undefined), the T/C [8] was 102 % of control and the T/C (dose: 400.0 mg/kg/injection, schedule: Q04DX003 (ip), vehicle: saline with Tween-80) was 117 % of control.
CSc1ccc2c(NCCCCCCCCNc3c4ccccc4nc4cc(SC)ccc34)c3ccccc3nc2c1 was tested, and the T/C (dose: 0.63 mg/kg/injection, schedule: Q01DX009 (ip), vehicle: other) was 117 % of control, the T/C (dose: 1.25 mg/kg/injection, schedule: Q01DX009 (ip), vehicle: other) was 119 % of control and the T/C (dose: 2.5 mg/kg/injection, schedule: Q01DX009 (ip), vehicle: other) was 123 % of control. For the same compound, the T/C (dose: 10.0 mg/kg/injection, schedule: Q01DX009 (ip), vehicle: other) was 122 % of control.
With CCN(CC)CCCC(C)NC(=S)N/N=C(\C)c1ccccn1 (centres undefined) the T/C (dose: 50.0 mg/kg/injection, schedule: Q01DX009 (ip), vehicle: saline) was 110 % of control and 113 % of control and the T/C (dose: 200.0 mg/kg/injection, schedule: Q01DX009 (ip), vehicle: saline) was 157 % of control.
For Cc1nn(C(=O)c2ccncc2)c(C)c1N=Nc1ccc(Br)cc1, the T/C [9] was 109 % of control, the T/C [10] was 110 % of control and the T/C [11] was 105 % of control.
With C=C1C[C@@H](O)C[C@@]2(C)C[C@@H]3OC(=O)C(=C)[C@@H]3C[C@H]12 the T/C (dose: 12.5 mg/kg/injection, schedule: Q01DX009 (ip), vehicle: Klucel (hydroxypropylcellulose) (HPC)) was 99 % of control, the T/C (dose: 25.0 mg/kg/injection, schedule: Q01DX009 (ip), vehicle: Klucel (hydroxypropylcellulose) (HPC)) was 111 % of control and the T/C [9] was 114 % of control. The T/C [10] was 114 % of control.
For CCOC(=O)C1=C(C)/C(=C/c2[n-]c(Cl)c(C)c2C(=O)OCC)N=C1C.CCOC(=O)C1=C(C)/C(=C/c2[n-]c(Cl)c(C)c2C(=O)OCC)N=C1C.[Co+3], the T/C [12] was 88 % of control, the T/C [13] was 98 % of control and the T/C [14] was 108 % of control.
With O=C(O)C(CCCCNC(=S)S)NC(=S)S.[Zn+2] (centres undefined) the T/C [12] was 95 % of control and the T/C [13] was 95 % of control.
NC(=O)c1cc2c3ccccc3ncc2c2ccccc12 was tested, and the T/C [15] was 100 % of control, the T/C [16] was 100 % of control and the T/C [17] was 100 % of control.
With Cc1ccccc1NC(=O)CCC(=O)NS(C)(=O)=O the T/C [15] was 102 % of control, the T/C [16] was 95 % of control and the T/C [17] was 95 % of control.
O=C(O)COc1ccc(F)c(F)c1 was tested, and the T/C (dose: 60.0 mg/kg/injection, schedule: Q01DX005 (ip), vehicle: Klucel (hydroxypropylcellulose) (HPC)) was 101 % of control and 104 % of control, the T/C (dose: 120.0 mg/kg/injection, schedule: Q01DX005 (ip), vehicle: Klucel (hydroxypropylcellulose) (HPC)) was 106 % of control and 94 % of control and the T/C (dose: 240.0 mg/kg/injection, schedule: Q01DX005 (ip), vehicle: Klucel (hydroxypropylcellulose) (HPC)) was 100 % of control and 86 % of control.
In the case of Cc1cc(=O)c2c(ccc3ccccc32)[nH]1, the T/C [3] is reported as 106 % of control, the T/C [7] is reported as 109 % of control and the T/C (dose: 400.0 mg/kg/injection, schedule: Q01DX009 (ip), vehicle: saline with Tween-80) is reported as 104 % of control.
CCOC(=O)c1[nH]c(=O)c2ccccc2c1O was tested, and the T/C (dose: 12.5 mg/kg/injection, schedule: Q01DX009 (ip), vehicle: suspension in saline) was 91 % of control, the T/C (dose: 25.0 mg/kg/injection, schedule: Q01DX009 (ip), vehicle: suspension in saline) was 92 % of control and the T/C [18] was 99 % of control. For the same compound, the T/C [19] was 98 % of control.
With C=CC(c1ccccc1)c1cc2c(cc1OC)OCO2 (centres undefined) the T/C [4] was 105 % of control, the T/C [5] was 96 % of control and the T/C [6] was 100 % of control.
In the case of N#Cc1[nH]ncc1[N+](=O)[O-], the T/C (dose: 25.0 mg/kg/injection, schedule: Q01DX001 (ip), vehicle: saline with Tween-80) is reported as 100 % of control, the T/C (dose: 50.0 mg/kg/injection, schedule: Q01DX001 (ip), vehicle: saline with Tween-80) is reported as 106 % of control and the T/C [15] is reported as 101 % of control.
With Nc1ncnc2c1nc(Br)n2C1OC2COP(=O)(O)OC2C1O (centres undefined) the T/C [18] was 100 % of control, the T/C [19] was 96 % of control and the T/C (dose: 200.0 mg/kg/injection, schedule: Q01DX009 (ip), vehicle: suspension in saline) was 100 % of control.
For OCC1OC(Oc2ccc3cc(Br)ccc3c2)C(O)C1O (centres undefined), the T/C [9] was 90 % of control, the T/C [10] was 99 % of control and the T/C [11] was 97 % of control.
In the case of Cc1ccc(OCC(COc2ccc(C)cc2)(COc2ccc(C)cc2)COc2ccc(C)cc2)cc1, the T/C [1] is reported as 86 % of control, the T/C [20] is reported as 86 % of control and the T/C [2] is reported as 86 % of control.
For CCCc1nc(N)[nH]c(=O)c1I, the T/C [12] was 88 % of control, the T/C [13] was 95 % of control and the T/C [14] was 106 % of control.
With N#Cc1c(-c2ccccc2)ssc1=S the T/C [21] was 104 % of control, the T/C [22] was 103 % of control and the T/C (dose: 240.0 mg/kg/injection, schedule: Q01DX005 (ip), vehicle: saline with Tween-80) was 106 % of control.
In the case of CN(C)CCN1CC2Cc3ccccc3C1c1ccccc12 (centres undefined), the T/C [23] is reported as 102 % of control and the T/C [24] is reported as 102 % of control.
For Cc1ccc(N2CCN(CC(O)COc3cc4c(c5c3CCCC5)CCCC4)CC2)cc1C (centres undefined), the T/C [23] was 95 % of control, the T/C [24] was 93 % of control and the T/C (dose: 400.0 mg/kg/injection, schedule: Q04DX003 (ip), vehicle: Klucel (hydroxypropylcellulose) (HPC)) was 91 % of control.
In the case of CC(=O)CC1C=CCC(CC(O)c2ccccc2)N1C (centres undefined), the T/C (dose: 12.5 mg/kg/injection, schedule: Q01DX005 (ip), vehicle: saline) is reported as 100 % of control, the T/C (dose: 25.0 mg/kg/injection, schedule: Q01DX005 (ip), vehicle: saline) is reported as 105 % of control and the T/C (dose: 50.0 mg/kg/injection, schedule: Q01DX005 (ip), vehicle: saline) is reported as 105 % of control.
With CCN(CCO)CC(C)Nc1ccc([N+](=O)[O-])c2sc3ccccc3c(=O)c12 (centres undefined) the T/C [20] was 159 % of control, the T/C [2] was 190 % of control and 213 % of control and the T/C (dose: 66.0 mg/kg/injection, schedule: Q04DX003 (ip), vehicle: saline with Tween-80) was 159 % of control. For the same compound, the T/C [3] was 100 % of control, the T/C [8] was 213 % of control and the T/C (dose: 150.0 mg/kg/injection, schedule: Q04DX003 (ip), vehicle: saline with Tween-80) was 118 % of control.
Cc1oc(C)c(-c2ccccc2)c1C(=O)N1CCN(C)CC1 was tested, and the T/C [21] was 98 % of control and the T/C [22] was 98 % of control.
With COC(=O)c1n[nH]n(Cc2cccs2)c1=O (tested in a mixture with another compound) the T/C [12] was 108 % of control, the T/C [13] was 103 % of control and the T/C [14] was 97 % of control.
In the case of C=C(CCCC(C)(C)OCOCCOC)[Si](C)(C)C, the T/C [4] is reported as 101 % of control, the T/C [5] is reported as 100 % of control and the T/C [6] is reported as 102 % of control.
Cc1c(/C=C/c2oc3ccc(C(=N)N)cc3c2C)oc2ccc(C(=N)N)cc12 was tested, and the T/C [25] was 124 % of control.
In the case of CCCCN(CCCC)S(=O)(=O)N1CCCCC1, the T/C (dose: 50.0 mg/kg/injection, schedule: Q04DX002 (ip), vehicle: saline) is reported as 105 % of control, the T/C [25] is reported as 98 % of control and the T/C (dose: 200.0 mg/kg/injection, schedule: Q04DX002 (ip), vehicle: saline) is reported as 96 % of control. For the same compound, the T/C (dose: 400.0 mg/kg/injection, schedule: Q04DX002 (ip), vehicle: saline) was 100 % of control.
With OC(c1cc(C(F)(F)F)nc2c(Cl)cc(Cl)cc12)C1CCCCN1 (centres undefined) the T/C [2] was 105 % of control and the T/C [3] was 106 % of control.
CC1=NOC(=O)/C1=C/c1ccccc1C was tested, and the T/C [4] was 104 % of control and the T/C [5] was 104 % of control.
